Entries after “also recorded” stand apart in the source; their conditions may differ. Where two headings read alike, the source gives them in different places. Blank lines part the entries; values can stand above or below the compound they belong to.
Tests used:
Erb4 = Erb4 (Homo sapiens, UniProt Q15303); assay: Kinase activity assay (LabChip platform, Nanosyn)
SK-BR3 cells [1] = assay: Cell growth inhibition wash out assay; type: cell-based; settings: SK-BR3, 1 hour exposure (0.1, 0.25, 0.5 μM), 6 days culture
[2] = test system: Btk signaling pathways in Mino cells; assay: Signaling pathways in B cells (FIG. 23); type: cell-based
BT-474 cells [3] = assay: Cell growth inhibition wash out assay; type: cell-based; settings: BT-474, 1 hour exposure (0.1, 0.25, 0.5 μM), 6 days culture
ErbB kinases = assay: Separate dialysis experiment on kinase inhibition (data not shown); type: biochemical
BT-474 cells [4] = assay: Tumorsphere culture; type: cell-based; settings: BT-474, 1 hour treatment, wash out, seven days culture
ITK = ITK (Homo sapiens, UniProt Q08881); assay: Kinase activity assay (LabChip platform, Nanosyn); type: biochemical; settings: recombinant enzyme 5 nM, substrate 1 μM
EGFR = EGFR (Homo sapiens, UniProt P00533); assay: EGFR dialysis assay; type: biochemical; settings: 10 nM or 100 nM, 1 h pre-incubation, 24 h dialysis
Method: Control samples included: DMSO+5 nM EGFR dialyzed in the identical manner. […] Initial velocity was determined in the samples.

MDA-MB-453 cells [5] = assay: Resistance induced by heregulin; type: cell-based; settings: MDA-MB-453, higher concentration of ibrutinib
MDA-MB-453 cells [6] = assay: Cell proliferation assay with alamar blue
[7] = test system: aldehyde dehydrogenase (ALDH) in BT-474 cells; assay: Aldefluor assay
[8] = test system: ErbB kinases and down-stream signaling pathways; assay: Washout experiment, immunoblotting of total and phosphorylated proteins (FIG. 10); type: cell-based; settings: BT474 and SKBR-3, 0.1 or 0.5 μM, various times, then cultured additional 2 hours
Method: Cells were washed once with cold PBS and lysed in 1× sample buffer (Invitrogen). The whole cell lysate was boiled, sonicated, and then loaded onto a 4-15% gradient SDS-PAGE gel. The proteins were transferred to PVDF membrane. After probing with antibodies, the detection was conducted using an Odyssey […] (Li-Cor). Paired mouse and rabbit antibodies were used to probe the total and corresponding phosphorylated proteins.

TEC = TEC (Homo sapiens, UniProt P42680); assay: Kinase activity assay (LabChip platform, Nanosyn); type: biochemical; settings: recombinant enzyme 5 nM, substrate 1 μM
ErB2 = ErB2 (Homo sapiens, UniProt P04626); assay: Kinase activity assay (LabChip platform, Nanosyn); settings: recombinant enzyme 5 nM, substrate 1 μM
JAK3 = JAK3 (Homo sapiens, UniProt P52333); assay: Kinase activity assay (LabChip platform, Nanosyn); type: biochemical; settings: recombinant enzyme 5 nM, substrate 1 μM
[9] = test system: HER2 and HER4 activation in BT-474 cells; assay: HER2 and HER4 activation assessed by phosphorylation of downstream targets (FIG. 16); type: cell-based; settings: BT-474, ibrutinib compared to AVL-292
SK-BR3 cells [10] = assay: Cell proliferation assay with alamar blue; settings: SK-BR3, 3 days continuous exposure
BT-474 cells [11] = assay: Cell cycle analysis; type: cell-based; settings: BT-474, 1 h exposure, measured at 24 h
TXK = TXK (Homo sapiens, UniProt P42681); assay: Kinase activity assay (LabChip platform, Nanosyn); type: biochemical; settings: recombinant enzyme 5 nM, substrate 1 μM
BT-474 cells [12] = assay: Resistance induced by heregulin; type: cell-based; settings: BT-474, higher concentration of ibrutinib
HER signaling pathway = assay: One hour treatment followed by washout, signaling pathways (FIG. 33); type: cell-based
BT-474 cells [13] = assay: Apoptosis assay (annexin-V / sub G0); type: cell-based
MDA-MB-453 xenograft = assay: Mouse MDA-MB-453 xenograft; type: in vivo
LCK = LCK (Homo sapiens, UniProt P06239); assay: LCK dialysis assay; type: biochemical; settings: 10 nM or 100 nM, 1 h pre-incubation, 24 h dialysis
Method: Control samples included: DMSO+5 nM LCK dialyzed in the identical manner. […] Initial velocity was determined in the samples.

UACC-893 cells = assay: Cell proliferation assay with alamar blue; type: cell-based; settings: UACC-893, 3 days continuous exposure
[14] = test system: EGFR, HER2, HER4 and downstream targets (MEK, Akt signaling pathway); assay: Signaling pathway inhibition (FIGS. 19-21); type: cell-based; settings: for inhibition of MEK and Akt signaling pathway compared with EGFR and HER2 signaling pathway: FIG. 21
EGFR (ErbB1) = EGFR (ErbB1) (Homo sapiens, UniProt P00533); assay: Kinase activity assay (LabChip platform, Nanosyn); settings: recombinant enzyme 5 nM, substrate 1 μM
HER4 = HER4 (Homo sapiens, UniProt Q15303); assay: HER4 dialysis assay; type: biochemical; settings: 10 nM or 100 nM, 1 h pre-incubation, 24 h dialysis
SK-BR3 cells [15] = assay: Cell cycle analysis; type: cell-based; settings: SK-BR3, 1 h exposure, measured at 24 h
BLK = BLK (Homo sapiens, UniProt P51451); assay: Kinase activity assay (LabChip platform, Nanosyn); type: biochemical; settings: recombinant enzyme 5 nM, substrate 1 μM
BT-474 cells [16] = assay: Cell proliferation assay with alamar blue; settings: BT-474, 3 days continuous exposure
BTK = target: T1, BTK (Homo sapiens, UniProt Q06187); assay: Covalent binding to Btk, DoHH2 cells with PCI-33380 (FIG. 24); settings: inhibitors 1 h, then PCI-33380 2 uM 30 min
T1 construct: endogenous in cells; host or cells: DoHH2
T1 sequence (Q06187 whole entry): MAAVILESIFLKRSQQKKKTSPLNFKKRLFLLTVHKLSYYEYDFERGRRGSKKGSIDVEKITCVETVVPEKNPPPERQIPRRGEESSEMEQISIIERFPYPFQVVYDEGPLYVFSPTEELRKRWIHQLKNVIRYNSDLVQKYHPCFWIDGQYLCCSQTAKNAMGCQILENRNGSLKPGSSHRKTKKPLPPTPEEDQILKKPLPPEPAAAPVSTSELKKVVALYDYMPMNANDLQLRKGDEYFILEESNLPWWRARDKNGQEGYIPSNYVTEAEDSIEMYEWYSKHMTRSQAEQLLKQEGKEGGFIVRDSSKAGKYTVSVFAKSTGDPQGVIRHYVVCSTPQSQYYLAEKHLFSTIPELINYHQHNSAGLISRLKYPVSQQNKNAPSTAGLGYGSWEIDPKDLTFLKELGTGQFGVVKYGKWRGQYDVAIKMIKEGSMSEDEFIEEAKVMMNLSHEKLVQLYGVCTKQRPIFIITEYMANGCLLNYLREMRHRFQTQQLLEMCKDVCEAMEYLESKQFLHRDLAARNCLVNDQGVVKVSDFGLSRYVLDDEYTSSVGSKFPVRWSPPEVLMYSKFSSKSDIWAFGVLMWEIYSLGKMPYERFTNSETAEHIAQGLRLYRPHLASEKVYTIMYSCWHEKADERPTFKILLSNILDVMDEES

Sequence of Erb4 (Q15303 26-1292 isoform Q15303-3 limits assumed): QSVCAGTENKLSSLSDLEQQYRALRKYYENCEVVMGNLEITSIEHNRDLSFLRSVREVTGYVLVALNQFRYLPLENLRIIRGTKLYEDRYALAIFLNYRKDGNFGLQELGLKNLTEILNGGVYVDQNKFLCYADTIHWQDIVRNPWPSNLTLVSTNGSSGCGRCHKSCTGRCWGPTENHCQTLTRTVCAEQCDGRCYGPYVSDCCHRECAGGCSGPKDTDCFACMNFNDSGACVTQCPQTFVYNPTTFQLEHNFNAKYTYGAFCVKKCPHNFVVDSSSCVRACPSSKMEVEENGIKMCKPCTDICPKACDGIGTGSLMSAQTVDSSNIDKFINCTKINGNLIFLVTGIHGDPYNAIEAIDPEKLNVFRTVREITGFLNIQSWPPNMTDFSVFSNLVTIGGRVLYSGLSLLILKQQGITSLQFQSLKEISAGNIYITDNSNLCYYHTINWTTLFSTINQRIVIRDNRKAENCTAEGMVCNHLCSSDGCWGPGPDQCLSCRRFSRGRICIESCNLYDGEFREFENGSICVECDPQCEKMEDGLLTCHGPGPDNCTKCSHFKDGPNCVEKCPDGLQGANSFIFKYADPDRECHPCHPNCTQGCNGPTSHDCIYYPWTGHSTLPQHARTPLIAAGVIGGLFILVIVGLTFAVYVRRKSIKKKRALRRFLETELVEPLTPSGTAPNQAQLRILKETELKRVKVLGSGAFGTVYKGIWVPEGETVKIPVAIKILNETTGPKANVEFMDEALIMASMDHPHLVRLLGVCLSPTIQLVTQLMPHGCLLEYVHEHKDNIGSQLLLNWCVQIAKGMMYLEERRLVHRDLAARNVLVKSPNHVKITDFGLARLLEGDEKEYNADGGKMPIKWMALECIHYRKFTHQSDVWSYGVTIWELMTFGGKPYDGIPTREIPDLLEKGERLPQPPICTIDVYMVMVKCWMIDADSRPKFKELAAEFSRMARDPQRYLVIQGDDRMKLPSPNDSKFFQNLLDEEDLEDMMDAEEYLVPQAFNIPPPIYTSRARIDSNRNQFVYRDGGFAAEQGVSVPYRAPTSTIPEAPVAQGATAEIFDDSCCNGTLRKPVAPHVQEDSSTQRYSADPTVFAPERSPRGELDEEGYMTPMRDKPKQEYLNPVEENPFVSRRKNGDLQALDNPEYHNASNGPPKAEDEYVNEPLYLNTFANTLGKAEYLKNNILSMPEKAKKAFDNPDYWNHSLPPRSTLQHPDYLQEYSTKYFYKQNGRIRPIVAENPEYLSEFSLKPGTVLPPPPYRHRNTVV
Sequence of HER4 (Q15303 26-1292 isoform Q15303-3 limits assumed): as above
Sequence of EGFR (ErbB1) (P00533 25-1210): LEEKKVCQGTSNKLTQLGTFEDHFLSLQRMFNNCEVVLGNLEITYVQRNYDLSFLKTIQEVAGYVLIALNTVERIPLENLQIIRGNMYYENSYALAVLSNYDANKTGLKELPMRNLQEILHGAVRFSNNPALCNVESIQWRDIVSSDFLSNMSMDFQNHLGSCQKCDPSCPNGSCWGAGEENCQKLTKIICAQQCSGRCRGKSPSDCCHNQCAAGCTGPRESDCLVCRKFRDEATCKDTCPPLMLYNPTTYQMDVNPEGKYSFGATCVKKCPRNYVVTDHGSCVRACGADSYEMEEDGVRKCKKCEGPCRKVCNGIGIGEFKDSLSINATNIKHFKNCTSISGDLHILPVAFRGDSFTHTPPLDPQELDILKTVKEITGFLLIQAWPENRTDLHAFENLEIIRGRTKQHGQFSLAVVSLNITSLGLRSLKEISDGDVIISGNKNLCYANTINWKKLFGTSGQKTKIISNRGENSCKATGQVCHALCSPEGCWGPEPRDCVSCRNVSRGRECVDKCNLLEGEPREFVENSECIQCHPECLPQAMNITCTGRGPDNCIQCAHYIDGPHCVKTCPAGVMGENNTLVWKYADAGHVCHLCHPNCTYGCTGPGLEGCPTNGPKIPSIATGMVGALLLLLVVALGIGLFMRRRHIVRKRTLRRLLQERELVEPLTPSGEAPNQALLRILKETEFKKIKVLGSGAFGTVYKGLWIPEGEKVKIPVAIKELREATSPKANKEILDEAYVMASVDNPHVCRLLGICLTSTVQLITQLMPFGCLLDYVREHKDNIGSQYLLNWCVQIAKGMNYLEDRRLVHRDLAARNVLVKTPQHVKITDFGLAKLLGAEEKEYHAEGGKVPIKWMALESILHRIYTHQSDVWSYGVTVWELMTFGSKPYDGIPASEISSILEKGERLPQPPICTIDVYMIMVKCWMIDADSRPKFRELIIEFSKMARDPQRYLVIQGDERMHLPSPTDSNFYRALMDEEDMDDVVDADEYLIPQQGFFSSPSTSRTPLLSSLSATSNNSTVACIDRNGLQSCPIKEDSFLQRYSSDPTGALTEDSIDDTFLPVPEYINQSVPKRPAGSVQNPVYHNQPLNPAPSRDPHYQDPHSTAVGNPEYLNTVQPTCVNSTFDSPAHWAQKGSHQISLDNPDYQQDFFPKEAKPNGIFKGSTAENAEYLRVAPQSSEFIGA
Sequence of EGFR (P00533 25-1210): as above
Sequence of LCK (P06239 whole entry, species assumed): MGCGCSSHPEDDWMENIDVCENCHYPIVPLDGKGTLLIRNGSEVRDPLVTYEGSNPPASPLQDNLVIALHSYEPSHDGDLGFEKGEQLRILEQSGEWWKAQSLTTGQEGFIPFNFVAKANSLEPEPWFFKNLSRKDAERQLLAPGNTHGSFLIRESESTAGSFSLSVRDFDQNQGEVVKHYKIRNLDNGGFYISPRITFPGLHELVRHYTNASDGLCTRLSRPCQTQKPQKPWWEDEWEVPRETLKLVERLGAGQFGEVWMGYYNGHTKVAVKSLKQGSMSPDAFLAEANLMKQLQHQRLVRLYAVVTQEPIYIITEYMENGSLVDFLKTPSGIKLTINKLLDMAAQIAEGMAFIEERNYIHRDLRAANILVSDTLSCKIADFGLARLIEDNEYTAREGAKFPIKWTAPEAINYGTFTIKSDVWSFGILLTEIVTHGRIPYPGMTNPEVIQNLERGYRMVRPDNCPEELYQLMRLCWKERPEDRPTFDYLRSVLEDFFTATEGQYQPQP

kinase inhibition after dialysis (ErbB kinases): dialysis resistant | inhibition of ITK (ITK): able to inhibit | reversibility of EGFR inhibition after dialysis (EGFR): irreversible inhibition | reversibility of EGFR inhibition after dialysis (EGFR; listed as Ibrutinib): irreversibly inhibits | inhibition of TEC (TEC): able to inhibit | inhibition of JAK3 (JAK3): able to inhibit | inhibition of TXK (TXK): able to inhibit | reversibility of LCK inhibition after dialysis (LCK): reversible inhibition | reversibility of LCK inhibition after dialysis (LCK; listed as Ibrutinib): reversibly inhibits | IC50 toward EGFR compared with HER2 and HER4 ([14]; FIG. 19B): higher IC50 | reversibility of HER4 inhibition after dialysis (HER4): irreversible inhibition | reversibility of HER4 inhibition after dialysis (HER4; listed as Ibrutinib): irreversibly inhibits | inhibition of BLK (BLK): able to inhibit
Compound: C=CC(=O)N1CCC[C@@H](n2nc(-c3ccc(Oc4ccccc4)cc3)c3c(N)ncnc32)C1 [ibrutinib, (R)-1-(3-(4-amino-3-(4-phenoxyphenyl)-1H-pyrazolo[3,4-d]pyrimidin-1-yl)piperidin-1-yl)prop-2-en-1-one]
growth inhibitory effect after wash out (SK-BR3 cells [1]): sustained and was dose dependent | inhibitory effect on Btk signaling pathways in B cells [2]: selective inhibitory effect | inhibitory effect on Btk signaling pathways in B cells ([2]; listed as Ibrutinib): selectively inhibits | growth inhibitory effect after wash out (BT-474 cells [3]): sustained and was dose dependent | tumorsphere growth (size) (BT-474 cells [4]): inhibited tumorsphere growth | tumorsphere number (BT-474 cells [4]): without affecting tumorsphere number | overcoming resistance induced by heregulin (MDA-MB-453 cells [5]): able to overcome resistance induced by heregulin | growth inhibitory effect (MDA-MB-453 cells [6]; MDA-MB-453, 3 days continuous exposure): sensitive to the growth inhibitory effect; also recorded: confirmed ibrutinib inhibitory activity | inhibition of cell growth compared to gefitinib (MDA-MB-453 cells [6]; MDA-MB-453, fluorescence-based assay): more potent than gefitinib | putative stem-like subpopulation of breast cancer cells ([7]; BT-474, one hour or continuous treatment): decreased | aldehyde dehydrogenase activity ([7]; BT-474, short exposures to high concentrations or continuous exposure to low concentration): decreased aldehyde dehydrogenase activity | inhibition of ErbB kinases and down-stream signaling pathways after washout [8]: persisted after ibrutinib washout, and was time and concentration dependent | inhibition of ErB2 (ErB2): able to inhibit; also recorded: effective in inhibiting | inhibition of HER2 and HER4 activation (phosphorylation of downstream targets, such as AKT) [9]: only ibrutinib inhibited HER2 and HER4 activation | growth inhibitory effect (SK-BR3 cells [10]): sensitive to the growth inhibitory effect; also recorded: confirmed ibrutinib inhibitory activity | cell cycle effect (BT-474 cells [11]): G1 arrest | overcoming resistance induced by heregulin (BT-474 cells [12]): able to overcome resistance induced by heregulin | inhibitory effect on HER signaling pathway after washout (HER signaling pathway; day 6): lasting inhibitory effect even after day 6 | inhibitory effect on HER signaling pathway after washout (HER signaling pathway; day 6, listed as Ibrutinib): long-lasting inhibitory effect even after day 6 | apoptosis (annexin-V positivity or sub G0) (BT-474 cells [13]; BT-474, continuous treatment 3-day, with or without caspase inhibitor Q-VD-OPH): dramatic apoptosis which was caspase-dependent | apoptosis (cells in sub G0) (BT-474 cells [13]; BT-474, one hour treatment, 6 days after the exposure): low level of apoptosis | solid tumor growth (tumor volume) (MDA-MB-453 xenograft): inhibited solid tumor growth | growth inhibitory effect (UACC-893 cells): sensitive to the growth inhibitory effect | inhibition of MEK and Akt signaling pathway compared with EGFR and HER2 signaling pathway [14]: more potent inhibitor of MEK and Akt pathways than the EGFR and HER2 pathways | inhibition of MEK and Akt signaling pathway compared with EGFR and HER2 signaling pathway ([14]; listed as Ibrutinib): potent inhibitor of the MEK and Akt signaling pathway than of the EGFR and HER2 signaling pathway | inhibition of EGFR (ErbB1) (EGFR (ErbB1)): able to inhibit; also recorded: effective in inhibiting | inhibition of Erb4 (Erb4; recombinant enzyme 5 nM, substrate 1 μM): able to inhibit; also recorded: effective in inhibiting | cell cycle effect (SK-BR3 cells [15]): G1 arrest | growth inhibitory effect (BT-474 cells [16]): sensitive to the growth inhibitory effect; also recorded: confirmed ibrutinib inhibitory activity

covalent binding to Btk (BTK): did not
Compound: CS(=O)(=O)CCNCc1ccc(-c2ccc3ncnc(Nc4ccc(OCc5cccc(F)c5)c(Cl)c4)c3c2)o1 [lapatinib]

Second part, the compound before the results:

Compound: COc1cc2ncnc(Nc3ccc(F)c(Cl)c3)c2cc1OCCCN1CCOCC1 [gefitinib, reference compound]
HER4 inhibitory activity compared to ibrutinib (Erb4; stated without source): lower HER2/4 inhibitory activity

Compound: C=CC(=O)Nc1cccc(Nc2nc(Nc3ccc(OCCOC)cc3)ncc2F)c1 [AVL-292, reference compound]
inhibition of HER2 and HER4 activation (phosphorylation of downstream targets, such as AKT) [9]: only ibrutinib inhibited

Compound: CCOc1cc2ncc(C#N)c(Nc3ccc(OCc4ccccn4)c(Cl)c3)c2cc1NC(=O)/C=C/CN(C)C [neratinib]
covalent binding to Btk (BTK): did not

Compound: COc1cc2ncnc(Nc3ccc(F)c(Cl)c3)c2cc1NC(=O)/C=C/CN1CCCCC1 [dacomitinib, reference compound]
covalent binding to Btk (BTK): did not | inhibition of EGFR and downstream targets ([14]; FIG. 20): less effective
